Read-outs that look alike come from different tables or passages of the source.

Common to all, as to assay type: binding
For experiment [1], the target named is T1, various enzymes (Homo sapiens, UniProt O43283).
T1 sequence (O43283 1-966): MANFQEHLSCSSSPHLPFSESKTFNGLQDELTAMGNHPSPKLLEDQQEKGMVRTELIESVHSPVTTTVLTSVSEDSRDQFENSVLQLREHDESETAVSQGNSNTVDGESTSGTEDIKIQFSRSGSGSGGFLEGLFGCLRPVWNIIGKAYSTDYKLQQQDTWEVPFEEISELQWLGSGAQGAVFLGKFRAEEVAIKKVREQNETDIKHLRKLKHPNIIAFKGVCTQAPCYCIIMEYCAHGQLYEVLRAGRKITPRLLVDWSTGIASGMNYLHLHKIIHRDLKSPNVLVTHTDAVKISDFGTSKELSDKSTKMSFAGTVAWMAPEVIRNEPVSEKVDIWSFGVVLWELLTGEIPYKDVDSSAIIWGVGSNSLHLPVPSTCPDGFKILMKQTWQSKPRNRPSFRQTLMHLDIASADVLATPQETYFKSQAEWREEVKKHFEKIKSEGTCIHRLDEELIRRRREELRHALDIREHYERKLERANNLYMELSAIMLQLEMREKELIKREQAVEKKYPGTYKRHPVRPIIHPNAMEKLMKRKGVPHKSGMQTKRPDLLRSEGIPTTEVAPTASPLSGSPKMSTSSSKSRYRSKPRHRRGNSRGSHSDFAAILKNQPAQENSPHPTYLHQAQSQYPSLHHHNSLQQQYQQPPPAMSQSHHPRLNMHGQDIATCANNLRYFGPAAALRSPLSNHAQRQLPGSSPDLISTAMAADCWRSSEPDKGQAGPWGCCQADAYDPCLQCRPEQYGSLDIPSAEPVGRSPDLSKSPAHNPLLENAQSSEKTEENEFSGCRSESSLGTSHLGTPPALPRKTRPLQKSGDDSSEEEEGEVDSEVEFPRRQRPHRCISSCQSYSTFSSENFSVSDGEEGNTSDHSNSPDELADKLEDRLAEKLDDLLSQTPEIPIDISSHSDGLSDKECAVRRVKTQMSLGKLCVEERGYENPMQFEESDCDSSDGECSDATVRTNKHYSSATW
The conditions noted are these: compound 1 uM. The method, then: (§1) Ambit profiling was conducted in accordance with the manufacturer's instructions.

Experiment [2] concerns the target various enzymes (Homo sapiens, UniProt Q16584). As to conditions: compound 1 uM. The method, then:
as §1

In experiment [3] the target is various enzymes (Homo sapiens, UniProt P51451). The conditions noted are these: compound 1 uM. The protocol: as §1
Chain of various enzymes (Homo sapiens, UniProt P51451) (P51451 whole entry): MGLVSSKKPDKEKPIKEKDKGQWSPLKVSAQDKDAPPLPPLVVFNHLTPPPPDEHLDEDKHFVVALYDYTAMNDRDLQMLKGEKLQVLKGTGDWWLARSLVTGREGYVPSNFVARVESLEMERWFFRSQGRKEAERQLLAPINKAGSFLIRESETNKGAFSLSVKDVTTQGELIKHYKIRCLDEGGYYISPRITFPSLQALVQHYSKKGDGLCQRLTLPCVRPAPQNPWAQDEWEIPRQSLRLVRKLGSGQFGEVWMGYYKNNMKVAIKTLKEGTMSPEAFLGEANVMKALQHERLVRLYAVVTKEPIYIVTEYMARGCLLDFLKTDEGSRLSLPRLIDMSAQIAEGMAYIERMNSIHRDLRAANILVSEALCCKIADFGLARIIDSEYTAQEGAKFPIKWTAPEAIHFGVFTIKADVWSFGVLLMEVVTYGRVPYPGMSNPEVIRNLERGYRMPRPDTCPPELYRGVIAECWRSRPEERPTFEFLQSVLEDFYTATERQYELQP
The target of experiment [4] is various enzymes (Homo sapiens, UniProt O75460). The conditions noted are these: compound 1 uM. The method, then: as §1
Chain of various enzymes (Homo sapiens, UniProt O75460) (O75460 19-977): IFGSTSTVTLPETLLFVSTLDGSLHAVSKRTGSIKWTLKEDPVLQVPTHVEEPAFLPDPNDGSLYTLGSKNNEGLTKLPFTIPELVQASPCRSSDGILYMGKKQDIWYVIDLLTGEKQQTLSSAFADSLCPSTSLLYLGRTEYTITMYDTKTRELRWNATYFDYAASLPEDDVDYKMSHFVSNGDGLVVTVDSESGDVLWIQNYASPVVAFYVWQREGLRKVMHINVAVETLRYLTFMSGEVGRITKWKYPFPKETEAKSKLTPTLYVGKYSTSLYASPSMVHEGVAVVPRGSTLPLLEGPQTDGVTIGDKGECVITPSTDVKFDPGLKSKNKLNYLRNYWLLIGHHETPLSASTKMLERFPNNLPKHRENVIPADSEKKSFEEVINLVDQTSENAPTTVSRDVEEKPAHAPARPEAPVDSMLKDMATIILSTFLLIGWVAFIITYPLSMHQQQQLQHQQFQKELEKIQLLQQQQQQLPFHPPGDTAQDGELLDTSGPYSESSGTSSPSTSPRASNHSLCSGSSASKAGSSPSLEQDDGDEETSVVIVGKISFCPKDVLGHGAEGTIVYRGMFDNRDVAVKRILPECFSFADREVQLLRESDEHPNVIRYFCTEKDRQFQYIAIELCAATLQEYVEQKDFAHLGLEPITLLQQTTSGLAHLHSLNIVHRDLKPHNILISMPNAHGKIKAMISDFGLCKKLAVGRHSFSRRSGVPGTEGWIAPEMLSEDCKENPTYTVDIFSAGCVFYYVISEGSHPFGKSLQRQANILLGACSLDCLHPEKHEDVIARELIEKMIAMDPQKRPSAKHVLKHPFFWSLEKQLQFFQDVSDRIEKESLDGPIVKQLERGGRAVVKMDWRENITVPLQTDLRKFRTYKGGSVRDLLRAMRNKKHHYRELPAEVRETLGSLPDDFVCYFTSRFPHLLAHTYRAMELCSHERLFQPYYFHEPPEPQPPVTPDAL
The target in experiment [5] is various enzymes (Homo sapiens, UniProt P00533, L858R/T790M). The protocol: as §1
Experiment [6] deals with various enzymes (Homo sapiens, UniProt P20794). As to conditions: compound 1 uM. The protocol: as §1
In experiment [7] the target is various enzymes (Homo sapiens, UniProt Q9Y2K2). The conditions noted are these: compound 1 uM. The method, then:
as §1

The target of experiment [8] is various enzymes (Homo sapiens, UniProt Q9H2X6). The conditions noted are these: compound 1 uM. The protocol:
as §1

Experiment [9] deals with various enzymes (Homo sapiens, UniProt O00329). The conditions noted are these: compound 1 uM. The method, then:
as §1

Experiment [10] deals with various enzymes (Homo sapiens, UniProt Q8TDX7). The conditions noted are these: compound 1 uM. The protocol: as §1
Chain of various enzymes (Homo sapiens, UniProt Q8TDX7) (Q8TDX7 whole entry): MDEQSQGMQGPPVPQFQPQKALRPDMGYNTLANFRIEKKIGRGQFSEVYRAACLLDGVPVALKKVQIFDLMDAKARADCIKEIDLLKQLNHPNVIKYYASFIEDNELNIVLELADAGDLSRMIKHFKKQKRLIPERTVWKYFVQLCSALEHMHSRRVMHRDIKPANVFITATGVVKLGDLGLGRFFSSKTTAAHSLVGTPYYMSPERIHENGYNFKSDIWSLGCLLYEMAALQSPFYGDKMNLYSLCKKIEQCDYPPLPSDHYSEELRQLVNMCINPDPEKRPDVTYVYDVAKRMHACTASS
The target in experiment [11] is various enzymes (Homo sapiens, UniProt P00519, H396P). As to conditions: compound 1 uM. The protocol:
as §1

For experiment [12], the target named is various enzymes (Homo sapiens, UniProt Q6ZWH5). The conditions noted are these: compound 1 uM. The protocol: as §1
Chain of various enzymes (Homo sapiens, UniProt Q6ZWH5) (Q6ZWH5 whole entry): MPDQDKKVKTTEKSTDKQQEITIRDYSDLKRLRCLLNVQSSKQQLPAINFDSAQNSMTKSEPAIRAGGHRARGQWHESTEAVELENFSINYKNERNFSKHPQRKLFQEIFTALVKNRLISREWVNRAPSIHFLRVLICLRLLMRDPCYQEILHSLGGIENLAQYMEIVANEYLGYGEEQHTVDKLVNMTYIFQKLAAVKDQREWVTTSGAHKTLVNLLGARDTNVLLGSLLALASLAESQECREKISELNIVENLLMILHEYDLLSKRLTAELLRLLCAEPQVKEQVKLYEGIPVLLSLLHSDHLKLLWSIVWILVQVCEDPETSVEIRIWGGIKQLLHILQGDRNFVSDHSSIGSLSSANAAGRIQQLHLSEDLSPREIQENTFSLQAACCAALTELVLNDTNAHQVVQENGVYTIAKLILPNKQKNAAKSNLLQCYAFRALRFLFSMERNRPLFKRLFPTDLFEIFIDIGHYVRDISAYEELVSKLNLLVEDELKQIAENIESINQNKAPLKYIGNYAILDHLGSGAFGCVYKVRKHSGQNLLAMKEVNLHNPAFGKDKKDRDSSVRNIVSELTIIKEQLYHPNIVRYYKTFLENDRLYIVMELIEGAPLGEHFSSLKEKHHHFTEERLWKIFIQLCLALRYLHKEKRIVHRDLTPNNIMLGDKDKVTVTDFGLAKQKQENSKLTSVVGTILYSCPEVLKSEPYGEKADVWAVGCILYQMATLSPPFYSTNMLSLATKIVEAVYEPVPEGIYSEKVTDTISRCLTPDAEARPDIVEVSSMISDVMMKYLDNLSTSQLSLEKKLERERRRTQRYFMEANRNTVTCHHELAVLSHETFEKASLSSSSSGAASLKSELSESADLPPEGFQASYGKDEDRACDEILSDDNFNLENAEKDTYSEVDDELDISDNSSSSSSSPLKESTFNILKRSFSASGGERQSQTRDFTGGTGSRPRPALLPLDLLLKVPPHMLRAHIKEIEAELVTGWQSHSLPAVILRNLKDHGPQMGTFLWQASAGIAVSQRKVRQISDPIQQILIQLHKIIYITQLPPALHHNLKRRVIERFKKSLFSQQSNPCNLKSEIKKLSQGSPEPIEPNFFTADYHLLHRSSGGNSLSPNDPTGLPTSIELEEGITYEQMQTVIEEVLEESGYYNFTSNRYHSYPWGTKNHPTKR
The target in experiment [13] is various enzymes (Homo sapiens, UniProt Q8TD08). As to conditions: compound 1 uM. The method, then:
as §1

The target of experiment [14] is various enzymes (Homo sapiens, UniProt P42336, E545K). The protocol: as §1
The target of experiment [15] is various enzymes (Homo sapiens, UniProt P48730). The conditions noted are these: compound 1 uM. The method, then:
as §1

Experiment [16] addresses T2, various enzymes (Homo sapiens, UniProt O75385).
T2 sequence (O75385 1-1050): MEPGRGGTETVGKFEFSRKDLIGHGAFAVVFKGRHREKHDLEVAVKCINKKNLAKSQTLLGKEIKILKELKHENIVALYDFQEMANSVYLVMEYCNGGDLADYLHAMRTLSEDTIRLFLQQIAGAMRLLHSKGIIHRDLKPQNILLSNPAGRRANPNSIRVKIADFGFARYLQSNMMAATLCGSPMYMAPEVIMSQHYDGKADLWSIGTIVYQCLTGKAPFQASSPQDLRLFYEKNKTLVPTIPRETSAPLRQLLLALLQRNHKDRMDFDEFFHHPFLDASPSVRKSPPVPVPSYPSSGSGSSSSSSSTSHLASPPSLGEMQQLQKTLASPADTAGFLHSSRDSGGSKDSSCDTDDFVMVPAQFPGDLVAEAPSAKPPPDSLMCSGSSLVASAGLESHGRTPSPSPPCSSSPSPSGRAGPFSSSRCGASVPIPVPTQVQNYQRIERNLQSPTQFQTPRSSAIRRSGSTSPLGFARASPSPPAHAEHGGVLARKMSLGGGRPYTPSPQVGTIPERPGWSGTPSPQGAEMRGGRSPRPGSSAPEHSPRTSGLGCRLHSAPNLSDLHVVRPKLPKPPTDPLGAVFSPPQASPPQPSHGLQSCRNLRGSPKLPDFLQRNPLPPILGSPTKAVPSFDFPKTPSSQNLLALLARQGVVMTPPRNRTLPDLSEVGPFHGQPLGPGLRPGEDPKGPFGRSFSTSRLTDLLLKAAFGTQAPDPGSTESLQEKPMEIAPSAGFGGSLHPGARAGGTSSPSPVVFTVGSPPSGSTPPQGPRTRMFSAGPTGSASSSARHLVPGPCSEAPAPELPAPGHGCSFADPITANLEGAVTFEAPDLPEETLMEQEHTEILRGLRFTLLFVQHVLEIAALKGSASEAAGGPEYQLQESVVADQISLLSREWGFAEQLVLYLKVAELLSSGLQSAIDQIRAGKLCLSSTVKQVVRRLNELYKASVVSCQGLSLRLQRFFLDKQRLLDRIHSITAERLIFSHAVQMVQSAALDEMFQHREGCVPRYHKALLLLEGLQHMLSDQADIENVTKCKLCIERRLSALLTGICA
As to conditions: compound 1 uM. The method, then:
as §1

Experiment [17] has as its target various enzymes (Homo sapiens, UniProt P51617). The conditions noted are these: compound 1 uM. The protocol:
as §1

Chain of various enzymes (Homo sapiens, UniProt O00329) (O00329 whole entry): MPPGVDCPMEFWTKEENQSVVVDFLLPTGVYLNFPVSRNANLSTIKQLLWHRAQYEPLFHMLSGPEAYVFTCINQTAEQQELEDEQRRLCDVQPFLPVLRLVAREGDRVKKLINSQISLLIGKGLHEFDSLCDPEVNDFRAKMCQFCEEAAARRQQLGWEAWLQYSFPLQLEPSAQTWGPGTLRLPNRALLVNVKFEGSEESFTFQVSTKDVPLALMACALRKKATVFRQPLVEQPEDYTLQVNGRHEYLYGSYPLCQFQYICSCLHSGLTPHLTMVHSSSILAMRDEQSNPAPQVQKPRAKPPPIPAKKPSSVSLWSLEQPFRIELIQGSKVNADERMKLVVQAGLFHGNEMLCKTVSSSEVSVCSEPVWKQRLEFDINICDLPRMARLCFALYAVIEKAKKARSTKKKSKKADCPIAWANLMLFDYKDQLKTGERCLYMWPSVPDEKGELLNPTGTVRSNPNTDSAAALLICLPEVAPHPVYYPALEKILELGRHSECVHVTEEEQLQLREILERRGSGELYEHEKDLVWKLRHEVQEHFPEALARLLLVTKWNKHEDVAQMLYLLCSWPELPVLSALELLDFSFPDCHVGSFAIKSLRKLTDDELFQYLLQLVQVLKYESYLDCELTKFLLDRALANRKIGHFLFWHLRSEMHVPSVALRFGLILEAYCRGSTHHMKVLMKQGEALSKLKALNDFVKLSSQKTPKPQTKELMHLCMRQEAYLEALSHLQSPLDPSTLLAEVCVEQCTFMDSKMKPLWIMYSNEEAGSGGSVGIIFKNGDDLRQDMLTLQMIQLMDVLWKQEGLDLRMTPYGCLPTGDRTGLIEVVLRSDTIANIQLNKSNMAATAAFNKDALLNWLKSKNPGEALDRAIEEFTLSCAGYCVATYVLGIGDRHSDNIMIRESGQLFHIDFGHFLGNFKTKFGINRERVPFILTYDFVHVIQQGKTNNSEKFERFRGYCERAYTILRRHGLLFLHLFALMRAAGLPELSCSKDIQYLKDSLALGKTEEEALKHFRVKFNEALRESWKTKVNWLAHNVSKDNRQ
Chain of various enzymes (Homo sapiens, UniProt Q16584) (Q16584 whole entry): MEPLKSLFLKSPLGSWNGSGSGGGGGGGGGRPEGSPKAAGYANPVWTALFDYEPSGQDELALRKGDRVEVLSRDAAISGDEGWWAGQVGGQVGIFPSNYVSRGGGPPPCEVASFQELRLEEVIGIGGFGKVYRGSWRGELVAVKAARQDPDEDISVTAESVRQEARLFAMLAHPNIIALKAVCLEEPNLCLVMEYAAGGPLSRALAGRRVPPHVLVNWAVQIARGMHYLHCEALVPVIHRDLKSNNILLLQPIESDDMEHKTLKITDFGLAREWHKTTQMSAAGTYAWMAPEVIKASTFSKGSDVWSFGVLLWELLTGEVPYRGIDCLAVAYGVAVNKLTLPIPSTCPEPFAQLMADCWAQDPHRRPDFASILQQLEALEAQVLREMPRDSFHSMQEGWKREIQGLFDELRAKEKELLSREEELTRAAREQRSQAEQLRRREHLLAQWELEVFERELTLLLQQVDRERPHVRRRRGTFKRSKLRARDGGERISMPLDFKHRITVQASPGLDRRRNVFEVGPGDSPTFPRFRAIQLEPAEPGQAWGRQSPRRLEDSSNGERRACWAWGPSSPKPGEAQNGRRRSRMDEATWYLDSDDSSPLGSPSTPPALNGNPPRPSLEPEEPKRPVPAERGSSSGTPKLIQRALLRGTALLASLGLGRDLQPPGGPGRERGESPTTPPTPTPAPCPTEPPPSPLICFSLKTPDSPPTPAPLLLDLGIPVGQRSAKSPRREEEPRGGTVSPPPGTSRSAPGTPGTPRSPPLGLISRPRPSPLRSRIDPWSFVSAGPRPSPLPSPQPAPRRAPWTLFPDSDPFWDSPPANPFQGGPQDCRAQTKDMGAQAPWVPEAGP

For `CC(C)N1Cc2nn(C)cc2-c2cnc3[nH]cc(c3c2)-c2cn(nc2C(F)(F)F)CCCC1=O` [Compound 45, (Z)-5-isopropyl-31-methyl-13-(trifluoromethyl)-11H,21H,31H-5-aza-2(3,5)-pyrrolo[2,3-b]pyridina-1(4,1),3(4,3)-dipyrazolacyclononaphan-6-one], the “Ambit profiling: LZK” value on various enzymes [1] worked out at 42. Further, the “Ambit profiling: MLK3” value on various enzymes [2] came out at 28. In addition, the “Ambit profiling: BLK” value at various enzymes [3] was 3.7. For the same molecule, the “Ambit profiling: ERN1” value at various enzymes [4] turned out to be 90. For the same molecule, at various enzymes [5] (compound 1 uM), the “Ambit profiling: EGFR(L858R, T790M)” value is 27. Moreover, on various enzymes [6], the “Ambit profiling: MAK” value was found to be 34. At various enzymes [7], the “Ambit profiling: QSK” value came out at 32. Besides, at various enzymes [8], the “Ambit profiling: HIPK2” value stood at 6. In addition, the “Ambit profiling: PIK3CD” value at various enzymes [9] stood at 92. Further, at various enzymes [10], the “Ambit profiling: NEK7” value amounted to 97. Besides, at various enzymes [11], the “Ambit profiling: ABL1(H396P)-nonphosphorylated” value came to 1.9 and the “Ambit profiling: ABL1(H396P)-phosphorylated” value stood at 24. Besides, the “Ambit profiling: NEK10” value on various enzymes [12] came out at 97. Besides, the “Ambit profiling: ERK8” value at various enzymes [13] was determined as 6.1. The “Ambit profiling: PIK3CA(E545K)” value at various enzymes [14] (compound 1 uM) amounted to 51. The “Ambit profiling: CSNK1D” value on various enzymes [15] came to 28. Besides, the “Ambit profiling: ULK1” value at various enzymes [16] turned out to be 75. Besides, at various enzymes [17], the “Ambit profiling: IRAK1” value is 1.4.
On to `COc1c2c(nn1C)CN(C(C)C)C(=O)CCCn1cc(c(C(F)(F)F)n1)-c1c[nH]c3ncc-2cc13` [Compound 50, (Z)-5-isopropyl-35-methoxy-31-methyl-13-(trifluoromethyl)-11H,21H,31H-5-aza-2(3,5)-pyrrolo[2,3-b]pyridina-1(4,1),3(4,3)-dipyrazolacyclononaphan-6-one], for which the “Ambit profiling: LZK” value on various enzymes [1] was 68. The “Ambit profiling: MLK3” value at various enzymes [2] is listed as 11. Also, the “Ambit profiling: BLK” value at various enzymes [3] came out at 1.6. The “Ambit profiling: ERN1” value on various enzymes [4] is 71. Also, on various enzymes [5], the “Ambit profiling: EGFR(L858R, T790M)” value is on record as 19. Further, the “Ambit profiling: MAK” value on various enzymes [6] was determined as 77. Also, at various enzymes [7], the “Ambit profiling: QSK” value was found to be 73. Further, the “Ambit profiling: HIPK2” value at various enzymes [8] is given as 13. For the same molecule, on various enzymes [9], the “Ambit profiling: PIK3CD” value worked out at 94. In addition, on various enzymes [10], the “Ambit profiling: NEK7” value is given as 68. Also, on various enzymes [11], the “Ambit profiling: ABL1(H396P)-nonphosphorylated” value is reported as 0.2 and the “Ambit profiling: ABL1(H396P)-phosphorylated” value is 3.9. For the same molecule, on various enzymes [12], the “Ambit profiling: NEK10” value turned out to be 87. On various enzymes [13], the “Ambit profiling: ERK8” value is on record as 18. Moreover, on various enzymes [14], the “Ambit profiling: PIK3CA(E545K)” value is given as 74. For the same molecule, the “Ambit profiling: CSNK10” value on various enzymes [15] turned out to be 11. For the same molecule, on various enzymes [16], the “Ambit profiling: ULK1” value is 93. On various enzymes [17], the “Ambit profiling: IRAK1” value worked out at 2.1.

The values are drawn from patent US12157741B2, “Macrocyclic inhibitors of DYRK1A” (DANA-FARBER CANCER INSTITUTE, INC., priority 2018, dated 2024).
